Laboratory results: patent US20240325382A1, “COMPOSITIONS AND METHODS FOR TREATING ANEMIA ASSOCIATED WITH A RIBOSOMAL DISORDER” (Disc Medicine, Inc., priority 2021, published 2024)
“Also recorded” adds a separate entry of the source.

Columns and labels:
Format in all cases: cell-based
TF-1 shRNA #a cells = assay: Cell number after bitopertin treatment, RPS19 knockdown TF-1 cells; details: 4 nM or 37 nM bitopertin, 2 days (day 4 to day 6), doxycycline and GMCSF
Description: (§1) Prior to treatment with bitopertin, the TF-1/shRNA #a cells were treated with doxycycline for 4 days to induce RPS19 knockdown by shRNA #a. TF-1/scramble shRNA cells were treated similarly as an experimental control. On day 4, both TF-1/shRNA #a and TF-1/scramble shRNA cells were seeded to the 12-well cell culture plates at a density of 1×10^5 cells per well. Bitopertin was added to the cells in 12-well plates for 48 hours of treatment from day 4 to day 6. […] Each of the TF-1 cells were also treated with doxycycline and GMCSF, which induces shRNA expression and stimulates proliferation, for the entirety of the experiment.
(§2) We investigated if blocking the uptake of heme biosynthesis pathway precursor glycine into cells with bitopertin could restore the balance between heme and globin and reverse the anti-proliferative effects caused by RPS19 knockdown. To test this hypothesis, similarly as above, washed cells were seeded in 6-well plates with doxycycline and GMSCSF to induce shRNA expression and cell proliferation for four days. On day 4, 1×10^5 cells were seeded into a 12-well plate with 4 nM or 37 nM bitopertin. After two days of treatment with bitopertin, we enumerated cell numbers.

[1] = system: TF-1 cells expressing scrambled shRNA; assay: Cell number after bitopertin treatment, scrambled shRNA TF-1 cells; details: 4 nM or 37 nM bitopertin, 2 days (day 4 to day 6), doxycycline and GMCSF
Description: as §1, §2

TF-1/shRNA #b cells = assay: CTG cell viability after bitopertin treatment, RPS19 knockdown TF-1 cells; details: varying doses, 1 μM top concentration, 9 points 3-fold dilutions, 2 days, doxycycline and GMCSF
Description: The cells were treated with (1) doxycycline during the entire cell culture period to induce shRNA expression; (2) GMCSF during the entire 6 days of cell culture period to induce proliferation. At day 4 of cell culture, the TF-1 cells were seeded to the 96-well cell culture plates at a density of 1×10^4 cells per well, and were treated with varying doses of bitopertin for two days of the culture period, from day 4 to day 6.
Further, in a similar setup, an equal number of cells were seeded on to 96-well plates after four days of doxycycline treatment and incubated with varying doses of bitopertin (1 μM top concentration, 9 points 3-fold dilutions) for two days and on day 6, we performed a CTG assay to measure the cell viability. The cells were cultured in the presence of GMCSF during the entire cell culture period.

TF-1 cells [2] = assay: Cell growth of TF-1 stable lines by cell counting with trypan blue staining; details: 6 days of culture with doxycycline; for growth inhibition (cell count): EPO; for effect on cell proliferation (cell count) compared to scrambled shRNA: GMCSF (2 ng/ml)
Text: RPS19 knockdown in TF-1 cells has been previously reported to adversely affect the growth of erythroid cells due to an imbalance in heme and globin synthesis. See, e.g., Yang, Z. et al. Sci Transl Med 8, 338ra67 (2016). The TF-1 cell line is a cell line of immature erythroid origin that requires cytokines such as granulocyte-macrophage colony-stimulating factor (GMCSF) or erythropoietin (EPO) for its growth. The cell growth capability of TF-1 stable lines shRNA #a, shRNA #b, and scrambled shRNA were assessed in vitro by cell counting after 6-days of cell culture in the presence of doxycycline induction. Cells were washed from regular growth media and seeded in equal numbers into media containing either GMCSF (2 ng/ml), a growth factor that induces proliferation of the TF-1 cells, or EPO (Ing/ml), a hormone that induces growth of the TF-1 cells and induces their differentiation along the erythroid lineage. Cell growth was monitored by counting cells with trypan blue staining (FIG. 3A and FIG. 3B).

TF-1 cells [3] = assay: Cell viability of TF-1 stable lines by CellTiter-Glo (CTG); details: GMCSF and EPO stimulus, doxycycline, 96-well plates
Description: Similarly, the cell growth capability of TF-1 stable lines shRNA #a, shRNA #b, and scrambled shRNA was assessed in vitro by cell viability assay. As described above, washed cells were seeded into 96 well plates in equal numbers in media containing either GMCSF or EPO (FIG. 4A and FIG. 4B) on separate plates for each day of readout. Cell viability was measured using the CellTiter-Glo® (CTG), which determines the number of viable cells in culture by quantifying ATP, which indicates the presence of metabolically active cells.

RPS19 protein = RPS19 protein levels by western blot in TF-1 stable cell lines; details: TF-1 stable line, doxycycline-induced shRNA, by day 5
Description: To generate an RPS19 deficient Diamond blackfan anemia (DBA) model, a TF-1 erythroid cell line was transduced with lentivirus encoding shRNAs targeting RPS19 (referred to as “shRNA #a” and “shRNA #b”) and a scrambled shRNA control (referred to as “Scramble shRNA” or “Scrambled”) (See Table 1). Stable cell lines were generated by selecting the infected cells with puromycin (1 ug/ml) for three weeks. The shRNA expression is doxycycline inducible. In the stable cell lines, RPS19 mRNA expression was measured using qRT-PCR after two (FIG. 1A) and four (FIG. 1B) days of doxycycline treatment. […] Further, RPS19 protein levels were decreased by more than 70% by shRNA #b by day 5 (FIG. 2A and FIG. 2B). The antibodies used in determining the RPS19 protein levels are described in Table 1.

Compound: C[C@H](Oc1ccc(S(C)(=O)=O)cc1C(=O)N1CCN(c2ncc(C(F)(F)F)cc2F)CC1)C(F)(F)F [bitopertin]
- effect on cell number of RPS19 knockdown cells (TF-1 shRNA #a cells): reverses the anti-proliferative effects; also recorded: protective effect
- effect on cell number of scrambled shRNA cells [1]: did not affect
- effect on cell viability (CTG) compared to TF-1/scrambled shRNA cells (TF-1/shRNA #b cells): dose-dependent bitopertin protective effect

Compound: shRNA #a: lentivirus-encoded, doxycycline-inducible shRNA targeting RPS19, GAGATCTGGACAGAATCGC (SEQ ID NO: 1)
- growth inhibition (cell count) (TF-1 cells [2]): dose-dependent growth inhibition
- effect on cell proliferation (cell count) compared to scrambled shRNA (TF-1 cells [2]): moderate effect
- cell growth inhibition (CTG cell viability) compared to scrambled shRNA (TF-1 cells [3]): moderate cell growth inhibitory effects

Compound: shRNA #b: lentivirus-encoded, doxycycline-inducible shRNA targeting RPS19, GCTTGCTCCCTACGATGAGAA (SEQ ID NO: 2)
- decrease of RPS19 protein levels (RPS19 protein): more than 70%
- growth inhibition (cell count) (TF-1 cells [2]): dose-dependent growth inhibition
- effect on cell proliferation (cell count) compared to scrambled shRNA (TF-1 cells [2]): more substantial effect
- cell growth inhibition (CTG cell viability) compared to scrambled shRNA (TF-1 cells [3]): high degree inhibition in cell growth
